According to patent publication US20130137081A1, “METHOD OF CRYOPRESERVING SELECTED SPERM CELLS” (XY,LLC, priority 1999, published 2013):

How the values were obtained:
[1] = tested on: flow-sorted bull sperm; experiment: Post-thaw motility of bulk-sorted frozen sperm: Hoechst 33342 dye concentration and laser intensity (Example 3); format: cell-based, bovine; details: for post-thaw motility: main effect mean
Method: Straws were thawed in a 37° C. water bath for 30 sec. Blind estimates of progressive motility were made after incubating samples at 37° C. for 0, 1 and 2 h post-thawing. Each of two observers estimated progressive sperm motility from each of two straws of semen. These four blind estimates for each experimental unit represent subsampling.
Sperm of 6 bulls were collected and prepared as described in Example 1A.
a) Experimental Design. • One ejaculate (2 bulls) and 2 ejaculates on different days (4 bulls) were used in a 2 by 2 design plus control.
b) Staining and Sorting. • Staining, preparation for sorting and sorting sperm were achieved as described in Example 2 except that the Hoechst 33342 dye was added to sperm suspensions at a final concentration of 149 μM or 224 μM; and sperm were bulked-sorted with the laser operating at 100 mW or 150 mW of incident power. Bulk-sorted sperm were collected into 50-ml plastic tubes as described in Example 2. Four tubes containing approximately 15×10^6 total sperm/tube were collected over 1 h for each bull. The sorted sperm were incubated for 1 h at 22° C. to simulate a longer sorting time.
c) Preparation for Freezing. • Following incubation, the sperm were cooled as in Example 2. The sperm were then concentrated by centrifugation at 5° C. at 850×g for 20 minutes. After removing the supernatant, 150 μl of Tris-A fraction extender was added to each 150-μl sperm pellet at 5° C. All of the sperm pellets were suspended by gentle repeated aspiration and the sperm of individual bulls were pooled. Tris B-fraction extender was added stepwise as described in Example 2. A non-stained, non-sorted control for each bull was prepared at 20×10^6 sperm/ml in Tris extender containing 6% glycerol and cooled to 5° C. while the bulk-sorted sperm were being prepared.
d) Equilibration and Freezing. • The control and sorted sperm were packaged into 0.25-ml polyvinylchloride straws as described in Example 2, equilibrated at 5° C. for 3 h and then frozen conventionally.
Straws were thawed and evaluated as described in Example 2.

[2] = tested on: bull sperm; experiment: Post-thaw progressive motility of sperm frozen in WET extender with SDS (Example 5A); format: cell-based, bovine; details: mean of 6 bulls
Method: Sperm of 6 bulls were collected and prepared as described in Example 1A. Sperm from each of 6 bulls were extended to 20×10^6/ml in 20% whole egg Tris (“WET”) extender containing 0, 0.03, 0.06, 0.09, or 0.12 percent SDS, packaged into straws and frozen. WET extender was prepared using 3.028 g of Tris[hydroxymethyl]aminomethane, 1.78 g of citric acid monohydrate, and 1.25 g of fructose per 100 ml of double distilled water, to which 20% whole egg (vol/vol) was added. The WET extender was prepared at a pH of about 7.0 and contained a final glycerol concentration of about 6% (vol/vol). The WET extender also contained 1000 IU of penicillin “G” sodium and 100 μg of streptomycin sulfate/ml.

| Structure (SMILES) | effect of dye concentration on post-thaw sperm motility ([1]; 149 μM vs 224 μM) | post-thaw motility ([1]; Hoechst 33342 149 μM, 0 h incubation at 37° C.) [%] | post-thaw motility ([1]; Hoechst 33342 149 μM, 1 h incubation at 37° C.) [%] | post-thaw motility ([1]; Hoechst 33342 149 μM, 2 h incubation at 37° C.) [%] | post-thaw motility ([1]; Hoechst 33342 224 μM, 0 h incubation at 37° C.) [%] | post-thaw motility ([1]; Hoechst 33342 224 μM, 1 h incubation at 37° C.) [%] | post-thaw motility ([1]; Hoechst 33342 224 μM, 2 h incubation at 37° C.) [%] | progressive motile sperm approximately 10 minutes post-thaw ([2]; WET extender containing 0.03 percent SDS) [%] | progressive motile sperm approximately 10 minutes post-thaw ([2]; WET extender containing 0.06 percent SDS) [%] | progressive motile sperm approximately 10 minutes post-thaw ([2]; WET extender containing 0.09 percent SDS) [%] | progressive motile sperm approximately 10 minutes post-thaw ([2]; WET extender containing 0.12 percent SDS) [%] |
| --- | --- | --- | --- | --- | --- | --- | --- | --- | --- | --- | --- |
| CCOc1ccc(-c2nc3ccc(-c4nc5ccc(N6CCN(C)CC6)cc5[nH]4)cc3[nH]2)cc1 [Hoechst 33342, bis-Benzimide H-33342] | no effect | 41 | 39 | 30 | 42 | 39 | 30 | – | – | – | – |
| CCCCCCCCCCCCOS(=O)(=O)[O-].[Na+] [SDS, sodium dodecyl sulfate] | – | – | – | – | – | – | – | 51 | 50 | 51 | 48 |
